We go through one substance from patent publication US20180360924A1, “TELOMERE EXTENSION AND ANTI-INFLAMMATORY AGENTS FOR CELL REGENERATION” (THE METHODIST HOSPITAL SYSTEM, priority 2015, published 2018).

This assay relates to Human chondrocytes. Nature of the assay: Telomere length in chondrocytes, relative quantification for the telomeric repeat (T/S-ratio). It is filed as cell-based. Conditions: LFA transfection, n=3, P65i high.

In the case of “RelA/NFkB p65 [pSer529, pSer536] inhibitor peptide [P65i]”, the “% increase in TL” value is on record as 4.0% and the T/S-ratio is given as 1.01.
